Test results: ChEMBL document CHEMBL1201862, “PubChem BioAssay data set” (2004)
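Test compounds were applied to cells in 96-well plates for 48 hours at 5 doses. Abbreviation: GI50, concentration required for 50% inhibition of growth.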 The source made the active and inactive calls. Rule as the data show it: active = GI50 up to about 1.1 µM and inactive = higher.

Legend:
Experiment in all cases: DTP human tumour cell line panel, 48 h
NCI/ADR-RES = tested on: NCI/ADR-RES
NCI-H460 = tested on: NCI-H460
MDA-MB-435 = tested on: MDA-MB-435
K562 = tested on: K562
UACC-257 = tested on: UACC-257
HL-60 = tested on: HL-60
OVCAR-3 = tested on: OVCAR-3
EKVX = tested on: EKVX
T47D = tested on: T47D
TK-10 = tested on: TK-10
Hs-578T = tested on: Hs-578T
A549 = tested on: A549
SN12C = tested on: SN12C
NCI-H23 = tested on: NCI-H23
SNB-75 = tested on: SNB-75
HOP-62 = tested on: HOP-62
U-251 = tested on: U-251
CCRF-CEM = tested on: CCRF-CEM
SR = tested on: SR

Measured: GI50

Cc1ccccc1OC(C)C(=O)NN1C(=O)CC(=O)N(c2ccccc2)C1=S (centres undefined)
inactive: NCI/ADR-RES 61 µM | NCI-H460 45.8 µM | MDA-MB-435 73.1 µM | K562 41.4 µM | UACC-257 58.3 µM | HL-60 10.4 µM | OVCAR-3 53.2 µM | EKVX 75.7 µM | T47D 35.3 µM | TK-10 63 µM | Hs-578T > 100 µM | A549 29.1 µM | SN12C 43.7 µM | NCI-H23 88.1 µM | SNB-75 48.3 µM | HOP-62 69.2 µM | U-251 62.7 µM

O=S(=O)(/N=C1/S/C(=N\c2ccccc2)N(c2ccccc2)/C1=N/S(=O)(=O)c1ccccc1)c1ccccc1
inactive: CCRF-CEM 28.7 µM | SR 18.1 µM | NCI-H460 21.3 µM | K562 23.9 µM | UACC-257 19.1 µM | HL-60 22.6 µM | EKVX 21.5 µM | TK-10 30.4 µM | Hs-578T 29.6 µM | A549 22.6 µM | SN12C 12.4 µM | NCI-H23 16.4 µM | SNB-75 20.7 µM | HOP-62 28.5 µM | U-251 22.3 µM

Cc1ccc(S(=O)(=O)NC(=O)N[C@@H](Cc2c[nH]cn2)C(=O)O)cc1
inactive: CCRF-CEM > 100 µM | NCI/ADR-RES > 100 µM | NCI-H460 > 100 µM | K562 > 100 µM | UACC-257 > 100 µM | HL-60 > 100 µM | T47D > 100 µM | TK-10 > 100 µM | Hs-578T > 100 µM | A549 > 100 µM | SN12C > 100 µM | NCI-H23 > 100 µM | SNB-75 > 100 µM | HOP-62 > 100 µM | U-251 > 100 µM

CCOc1ccc2c(c1)/C(=C(\C(Cl)=C(Cl)Cl)[N+](=O)[O-])N2
inactive: CCRF-CEM 47.9 µM | NCI/ADR-RES > 100 µM | NCI-H460 > 100 µM | MDA-MB-435 > 100 µM | K562 51.6 µM | UACC-257 > 100 µM | OVCAR-3 > 100 µM | EKVX 37.6 µM | T47D 48.9 µM | Hs-578T > 100 µM | A549 > 100 µM | SN12C > 100 µM | NCI-H23 > 100 µM | SNB-75 > 100 µM | HOP-62 > 100 µM | U-251 > 100 µM

Nc1n[n+](CC(=O)c2ccccc2)c2sc(-c3ccccc3)nn12
inactive: CCRF-CEM 45.7 µM | NCI/ADR-RES > 100 µM | NCI-H460 > 100 µM | MDA-MB-435 27.7 µM | K562 82.4 µM | UACC-257 > 100 µM | OVCAR-3 > 100 µM | EKVX > 100 µM | T47D > 100 µM | TK-10 > 100 µM | Hs-578T > 100 µM | A549 > 100 µM | SN12C > 100 µM | NCI-H23 > 100 µM | SNB-75 > 100 µM | HOP-62 > 100 µM | U-251 > 100 µM

NNC(=O)CC(=O)Nc1ccc(S(=O)(=O)c2ccc(NC(=O)CC(=O)NN)cc2)cc1
inactive: CCRF-CEM > 100 µM | NCI/ADR-RES > 100 µM | NCI-H460 > 100 µM | MDA-MB-435 > 100 µM | K562 > 100 µM | UACC-257 > 100 µM | HL-60 > 100 µM | OVCAR-3 > 100 µM | EKVX > 100 µM | T47D > 100 µM | TK-10 > 100 µM | Hs-578T > 100 µM | A549 > 100 µM | SN12C > 100 µM | NCI-H23 > 100 µM | SNB-75 > 100 µM | HOP-62 > 100 µM | U-251 > 100 µM

CCOc1cc(/C=C2/C(C)=NN(c3cccc(Cl)c3)/C2=N/c2nc3ccccc3s2)ccc1O
inactive: CCRF-CEM 33.2 µM | NCI/ADR-RES 20.5 µM | SR 27.9 µM | NCI-H460 25.5 µM | K562 40.4 µM | UACC-257 23.7 µM | HL-60 3.3 µM | OVCAR-3 20 µM | EKVX 38.4 µM | T47D 38.6 µM | TK-10 36.9 µM | Hs-578T 29.7 µM | NCI-H23 19.4 µM | SNB-75 34.8 µM | HOP-62 23.2 µM | U-251 20.3 µM

O=C(/C=N/c1ccccc1C(=O)[O-])c1cccs1.O=C(/C=N/c1ccccc1C(=O)[O-])c1cccs1.[Zn+2]
inactive: CCRF-CEM 23.7 µM | SR 46.3 µM | NCI-H460 71.8 µM | K562 29.2 µM | UACC-257 20.3 µM | HL-60 43.3 µM | OVCAR-3 15.4 µM | TK-10 > 100 µM | A549 73.8 µM | SN12C > 10 µM | NCI-H23 88.3 µM | SNB-75 14.8 µM | HOP-62 > 100 µM | U-251 17.5 µM

COC(=O)C1(C(=O)OC)N=C(C)OC1c1ccccn1 (centres undefined)
inactive: CCRF-CEM > 100 µM | NCI/ADR-RES > 100 µM | SR > 100 µM | NCI-H460 > 100 µM | MDA-MB-435 > 100 µM | K562 > 100 µM | UACC-257 > 100 µM | HL-60 > 100 µM | OVCAR-3 > 100 µM | EKVX > 100 µM | T47D > 100 µM | TK-10 > 100 µM | A549 > 100 µM | SN12C > 100 µM | NCI-H23 > 100 µM | SNB-75 > 100 µM | HOP-62 > 100 µM | U-251 > 100 µM

COc1ccc(NCC(=O)Nn2c(C)nc3ccc(S(=O)(=O)Nc4ccc(OC)cc4)cc3c2=O)cc1
inactive: CCRF-CEM > 100 µM | NCI/ADR-RES > 100 µM | SR > 100 µM | NCI-H460 > 100 µM | MDA-MB-435 > 100 µM | K562 > 100 µM | UACC-257 > 100 µM | HL-60 > 100 µM | OVCAR-3 > 100 µM | EKVX > 100 µM | TK-10 > 100 µM | Hs-578T > 100 µM | A549 > 100 µM | SN12C > 100 µM | NCI-H23 > 100 µM | SNB-75 > 100 µM | HOP-62 > 100 µM | U-251 > 100 µM

Cc1ccc(S(=O)(=O)Nn2c(-c3ccccc3)c(C#N)c(-c3ccc([N+](=O)[O-])cc3)c(C#N)c2=O)cc1
inactive: CCRF-CEM 32.1 µM | NCI/ADR-RES > 100 µM | NCI-H460 > 100 µM | MDA-MB-435 > 100 µM | UACC-257 > 100 µM | HL-60 39.4 µM | EKVX > 100 µM | TK-10 > 100 µM | Hs-578T 88.7 µM | A549 > 100 µM | SN12C > 100 µM | SNB-75 96.6 µM | HOP-62 > 100 µM | U-251 > 100 µM

CC(N)(/C=C/c1ccccc1)C(=O)O (centres undefined)
inactive: NCI/ADR-RES > 100 µM | SR > 100 µM | NCI-H460 > 100 µM | MDA-MB-435 > 100 µM | K562 > 100 µM | UACC-257 > 100 µM | HL-60 > 100 µM | OVCAR-3 > 100 µM | EKVX > 100 µM | TK-10 > 100 µM | Hs-578T 67.3 µM | A549 > 100 µM | SN12C > 100 µM | NCI-H23 > 100 µM | HOP-62 > 100 µM | U-251 > 100 µM
